Converted amounts (≈) assume the structure as drawn. “And” between values parts separate entries of the source, which are not always exact repeats. Identical values can stand only once. Like-named read-outs stand apart in the source and are kept apart here. Marks after values point to notes of the source that are not given here.
Columns and labels:
[1] = tested on: M. abscessus (ATCC 19977); experiment: MIC determination against NTM strains, microbroth dilution; format: cell-based, Mycobacterium abscessus; conditions: Mycobacteroides abscessus
[2] = tested on: M. avium complex (ATCC 700,891 MAC 101); experiment: Ex vivo efficacy in infected THP-1 macrophages; format: cell-based; conditions: Mycobacterium avium
[3] = tested on: M. abscessus (ATCC 19977); experiment: Ex vivo efficacy in infected THP-1 macrophages; format: cell-based, Mycobacterium abscessus; conditions: Mycobacteroides abscessus
[4] = tested on: M. avium (ATCC 25291); experiment: MIC determination against NTM strains, microbroth dilution; format: cell-based; conditions: Mycobacterium avium, ATCC25291; NTM strain
[5] = tested on: M. tuberculosis H37Rv; conditions: compound 1 included as reference; ref [26],[27],[28]; cited from earlier work
[6] = tested on: M. abscessus (ATCC 19977); conditions: compound 1 included as reference; ref [26],[27],[28]; cited from earlier work
[7] = tested on: H37Rv (katG^del); conditions: compound 1 included as reference; ref [26],[27],[28]; cited from earlier work
[8] = tested on: M. avium (ATCC 25291); conditions: compound 1 included as reference; ref [26],[27],[28]; cited from earlier work
[9] = tested on: M. tuberculosis H37Rv; experiment: microbe, parasite or virus in culture; format: cell-based; conditions: Mycobacterium tuberculosis, read-out: MIC (µM) H37Rv
[10] = tested on: M. tuberculosis H37Rv; experiment: Fractional inhibitory concentration (FIC), checkerboard with standard of care drugs; format: cell-based, Mycobacterium tuberculosis
[11] = tested on: MTB H37Rv; conditions: ref [26]; cited from earlier work
[12] = ATCC19977, NTM strain, read-out: MIC (µM) M. abscessus 19977
[13] = ATCC700, infected THP-1 macrophages, concentration for >90% inhibition, read-out: M. avium Ex Vivo Efficacy (>90% Inhibition µM)
[14] = ATCC19977, infected THP-1 macrophages, concentration for >90% inhibition, read-out: M. abscessus Ex Vivo Efficacy (>90% Inhibition µM)
[15] = ATCC700, THP-1, read-out: M. avium Ex Vivo Efficacy (>90% Inhibition µM)
[16] = ATCC19977, THP-1, read-out: M. abscessus Ex Vivo Efficacy (>90% Inhibition µM)
[17] = ATCC19977, read-out: MIC (µM) M. abscessus 19977

Molecule	MIC [1, 12]	MIC [4]	MIC [9]	further results
NCC[C@H](O)C(=O)N[C@@H]1C[C@H](N)[C@@H](O[C@H]2O[C@H](CN)[C@@H](O)[C@H](O)[C@H]2O)[C@H](O)[C@H]1O[C@H]1O[C@H](CO)[C@@H](O)[C@H](N)[C@H]1O [Amikacin, reference compound]	8 µM (≈ 4.68 µg/mL)	–	–	–
CC[C@H]1OC(=O)[C@H](C)[C@@H](O[C@H]2C[C@@](C)(OC)[C@@H](O)[C@H](C)O2)[C@H](C)[C@@H](O[C@@H]2O[C@H](C)C[C@H](N(C)C)[C@H]2O)[C@](C)(OC)C[C@@H](C)C(=O)[C@H](C)[C@@H](O)[C@]1(C)O [Clarithromycin, reference compound]	4 µM (≈ 2.99 µg/mL)	0.125 µM (≈ 0.0935 µg/mL)	–	IC90 [2, 13]: 8 µM; IC90 [3, 14]: 128 µM
C=C(C)[C@@H]1CC[C@]2(CO)CC[C@]3(C)[C@H](CC[C@@H]4[C@@]5(C)CCCNC(C)(C)[C@@H]5CC[C@]43C)[C@@H]12 [Compound 1, azepanobetulin]	–	–	–	IC90 [2, 13]: 8 µM; MIC (µM) H37Rv [5]: 4 * µM; MIC (µM) M. abscessus 19977 [6]: 8 * µM; IC90 [3, 14]: > 128 µM; MIC (µM) H37Rv (katG^del) [7]: 2 * µM; MIC (µM) M. avium 25291 [8]: 0.125 µM and 0.125 * µM
C=C(C)[C@@H]1CC[C@]2(C)CC[C@]3(C)[C@H](CC[C@@H]4[C@@]5(C)CCCNC(C)(C)[C@@H]5CC[C@]43C)[C@@H]12 [Compound 2, azepano-lupeol]	≤ 4 µM	1 µM (≈ 0.426 µg/mL)	≤ 4 µM	IC90 [2, 13]: > 128 µM; IC90 [3, 14]: > 128 µM
C=C(C)[C@@H]1CC[C@]2(CN)CC[C@]3(C)[C@H](CC[C@@H]4[C@@]5(C)CCCNC(C)(C)[C@@H]5CC[C@]43C)[C@@H]12 [Compound 3]	–	2 µM (≈ 0.882 µg/mL)	8 µM (≈ 3.53 µg/mL)	IC90 [2, 15]: > 128 µM; FIC interpretation with Isoniazid [10]: 1.0 Additive (key: FIC VALUE ≤ 0.5 (Synergistic); 0.5–1.0 (Additive); 1.0–4.0 (Indifferent); > 4.0 (Antagonistic)); FIC interpretation with Rifampin [10]: 1.0 Additive (key: FIC VALUE ≤ 0.5 (Synergistic); 0.5–1.0 (Additive); 1.0–4.0 (Indifferent); > 4.0 (Antagonistic)); FIC value with Ethambutol [10]: 1.5 Indifferent; FIC value with Isoniazid [10]: 1.0 Additive; FIC value with Rifampin [10]: 1.0 Additive; IC90 [3, 16]: > 128 µM; MIC [1, 17]: 16 µM (≈ 7.05 µg/mL)
C=C(C)[C@@H]1CC[C@]2(COC(=O)c3ccccc3C(=O)O)CC[C@]3(C)[C@H](CC[C@@H]4[C@@]5(C)CCCNC(C)(C)[C@@H]5CC[C@]43C)[C@@H]12 [Compound 4]	–	4 µM (≈ 2.36 µg/mL)	16 µM (≈ 9.44 µg/mL)	MIC [1, 17]: 16 µM (≈ 9.44 µg/mL)
C=C(C)[C@@H]1CC[C@]2(COC(=O)c3cccnc3)CC[C@]3(C)[C@H](CC[C@@H]4[C@@]5(C)CCCNC(C)(C)[C@@H]5CC[C@]43C)[C@@H]12 [Compound 5]	–	1 µM (≈ 0.547 µg/mL)	8 µM (≈ 4.37 µg/mL)	IC90 [2, 15]: 32 µM; IC90 [3, 16]: > 128 µM; MIC [1, 17]: 16 µM (≈ 8.75 µg/mL)
C=C(C)[C@@H]1CC[C@]2(COS(=O)(=O)c3ccc(C)cc3)CC[C@]3(C)[C@H](CC[C@@H]4[C@@]5(C)CCCNC(C)(C)[C@@H]5CC[C@]43C)[C@@H]12 [Compound 6]	–	1 µM (≈ 0.596 µg/mL)	8 µM (≈ 4.77 µg/mL)	MIC [1, 17]: 8 µM (≈ 4.77 µg/mL)
C=C(C)[C@@H]1CC[C@]2(C=NNC(=O)c3ccncc3)CC[C@]3(C)[C@H](CC[C@@H]4[C@@]5(C)CCCNC(C)(C)[C@@H]5CC[C@]43C)[C@@H]12 [Compound 7]	8 µM (≈ 4.47 µg/mL)	4 µM (≈ 2.24 µg/mL)	–	IC90 [2, 13]: 128 µM; FIC value with Rifampin [10]: 1.0 Additive; FIC value with Ethambutol ([10]; combination with Ethambutol): 1.0; FIC value with Isoniazid ([10]; combination with Isoniazid): 0.8; IC90 [3, 14]: > 128 µM
C=C(C)[C@@H]1CC[C@]2(C(=O)NC(CO)Cc3ccccc3)CC[C@]3(C)[C@H](CC[C@@H]4[C@@]5(C)CCCNC(C)(C)[C@@H]5CC[C@]43C)[C@@H]12 (stereo partly drawn) [Compound 8]	–	4 µM (≈ 2.36 µg/mL)	8 µM (≈ 4.71 µg/mL)	IC90 [2, 15]: 16 µM; IC90 [3, 16]: > 128 µM; MIC [1, 17]: 32 µM (≈ 18.8 µg/mL)
C=C(C)[C@@H]1CC[C@]2(C(=O)N3CCN(C)CC3)CC[C@]3(C)[C@H](CC[C@@H]4[C@@]5(C)CCCNC(C)(C)[C@@H]5CC[C@]43C)[C@@H]12 [Compound 9]	–	4 µM (≈ 2.15 µg/mL)	≤ 4 µM	IC90 [2, 15]: > 128 µM; FIC value with Ethambutol [10]: 2.5 Indifferent; FIC value with Rifampin [10]: 1.5 Indifferent; IC90 [3, 16]: > 128 µM; MIC [1, 17]: ≤ 4 µM
C=C(C)[C@@H]1CC[C@]2(C(=O)NC3CCCCC3)CC[C@]3(C)[C@H](CC[C@@H]4[C@@]5(C)CCCNC(C)(C)[C@@H]5CC[C@]43C)[C@@H]12 [Compound 10]	–	2 µM (≈ 1.07 µg/mL)	≤ 4 µM	IC90 [2, 15]: 64 µM; IC90 [3, 16]: > 128 µM; MIC [1, 17]: 8 µM (≈ 4.3 µg/mL)
C=C(C)[C@@H]1CC[C@]2(COC(C)=O)CC[C@]3(C)[C@H](CC[C@@H]4[C@@]5(C)CCCN(C(C)=O)C(C)(C)[C@@H]5CC[C@]43C)[C@@H]12 [Compound 11]	16 µM (≈ 8.41 µg/mL)	4 µM (≈ 2.1 µg/mL)	8 µM (≈ 4.21 µg/mL)	–
C=C(C)[C@@H]1CC[C@]2(COC(C)=O)CC[C@]3(C)[C@H](CC[C@@H]4[C@@]5(C)CCCN(C(=O)c6cccnc6)C(C)(C)[C@@H]5CC[C@]43C)[C@@H]12 [Compound 12]	8 µM (≈ 4.71 µg/mL)	4 µM (≈ 2.36 µg/mL)	32 µM (≈ 18.8 µg/mL)	–
CC(=O)[C@@H]1CC[C@]2(COS(=O)(=O)c3ccc(C)cc3)CC[C@]3(C)[C@H](CC[C@@H]4[C@@]5(C)CCCNC(C)(C)[C@@H]5CC[C@]43C)[C@@H]12 [Compound 13]	16 µM (≈ 9.57 µg/mL)	2 µM (≈ 1.2 µg/mL)	32 µM (≈ 19.1 µg/mL)	–
C=C(CBr)[C@@H]1CC[C@]2(COC(C)=O)CC[C@]3(C)[C@H](CC[C@@H]4[C@@]5(C)CCCNC(C)(C)[C@@H]5CC[C@]43C)[C@@H]12 [Compound 14]	> 64 µM	0.0625 µM (≈ 0.0352 µg/mL)	> 32 µM	–
C=C(CN=[N+]=[N-])[C@@H]1CC[C@]2(COC(C)=O)CC[C@]3(C)[C@H](CC[C@@H]4[C@@]5(C)CCCNC(C)(C)[C@@H]5CC[C@]43C)[C@@H]12 [Compound 15]	> 64 µM	64 µM (≈ 33.6 µg/mL)	> 32 µM	–
CC1(C)CCC23CCC4(C)C(CCC5C6(C)CCCNC(C)(C)C6CCC54C)C2C1OC3 (stereo not drawn) [Compound 17]	16 µM (≈ 7.07 µg/mL)	0.5 µM (≈ 0.221 µg/mL)	16 µM (≈ 7.07 µg/mL)	IC90 [2, 13]: > 128 µM; IC90 [3, 14]: > 128 µM
CC(C)=C1CCC=C2CC[C@]3(C)[C@H](CC[C@@H]4[C@@]5(C)CCCNC(C)(C)[C@@H]5CC[C@]43C)[C@H]21 [Compound 18]	32 µM (≈ 13.6 µg/mL)	4 µM (≈ 1.69 µg/mL)	16 µM (≈ 6.78 µg/mL)	IC90 [2, 13]: 128 µM; IC90 [3, 14]: > 128 µM
C#CCNC(=O)[C@]12CC[C@@H](C(=C)C)[C@@H]1[C@H]1CC[C@@H]3[C@@]4(C)CCCNC(C)(C)[C@@H]4CC[C@@]3(C)[C@]1(C)CC2 [Compound 20, 17-(Propargyl)-3-deoxo-3a-homo-3a-aza-lup-20(29)-en-carboxamide]	16 µM (≈ 7.88 µg/mL)	4 µM (≈ 1.97 µg/mL)	≤ 4 µM	–
NNC(=O)c1ccncc1 [Isoniazid, reference compound]	–	–	0.03 µM (≈ 0.00411 µg/mL)	–
COc1c(N2C[C@@H]3CCCN[C@@H]3C2)c(F)cc2c(=O)c(C(=O)O)cn(C3CC3)c12 [Moxifloxacin, reference compound]	–	–	0.06 µM (≈ 0.0241 µg/mL)	–
O=[N+]([O-])c1cn2c(n1)OC[C@@H](OCc1ccc(OC(F)(F)F)cc1)C2 [Pretomanid, reference compound]	–	–	0.125 µM (≈ 0.0449 µg/mL)	–
CO[C@H]1/C=C/O[C@@]2(C)Oc3c(C)c(O)c4c(O)c(c(/C=N/N5CCN(C)CC5)c(O)c4c3C2=O)NC(=O)/C(C)=C\C=C\[C@H](C)[C@H](O)[C@@H](C)[C@@H](O)[C@@H](C)[C@H](OC(C)=O)[C@@H]1C [Rifampin, reference compound]	–	0.0625 µM (≈ 0.0514 µg/mL)	≤ 0.004 µM	–
A-azepano-28-cinnamoyloxybetulin	–	–	–	MBC against MTB H37Rv [11]: 4 µM; MIC against MTB H37Rv [11]: 2 µM

Reference: paper PMC8621456, “New Investigations with Lupane Type A-Ring Azepane Triterpenoids for Antimycobacterial Drug Candidate Design” (International Journal of Molecular Sciences, 2021)
